Tests used:
[1] = tested on: caterpillars of the armyworm (Spodoptera frugiperda); assay: Spodoptera frugiperda spray test (SPODFR); format: in vivo; conditions: maize leaf discs, after 7 days
Experimental: I. Spodoptera frugiperda-spray Test (SPODFR)
(§1) Solvent: 78.0 parts by weight of acetone
(§2) • 1.5 parts by weight of dimethylformamide Emulsifier: alkylaryl polyglycol ether
(§3) To produce a suitable preparation of active compound, 1 part by weight of active compound is dissolved using the stated parts by weight of solvent and made up with water comprising an emulsifier concentration of 1000 ppm until the desired concentration is reached. To produce further test concentrations, the preparation is diluted with emulsifier-containing water.
Leaf discs of maize (Zea mays) are sprayed with an active compound preparation of the desired concentration and, after drying, populated with caterpillars of the armyworm (Spodoptera frugiperda).
After 7 days, the efficacy in % is determined. 100% means that all of the caterpillars have been killed; 0% means that none of the caterpillars have been killed.

[2] = tested on: engorged adult female cattle ticks (Boophilus microplus); assay: Boophilus microplus injection test (BOOPMI Inj); format: in vivo; conditions: application rate 20 μg/animal; injection into abdomen; assessed after 7 days
Experimental: C. Boophilus microplus-injection Test (BOOPMI Inj)
(§4) Solvent: dimethyl sulphoxide
To produce a suitable preparation of active compound, 10 mg of active compound are mixed with 0.5 ml of solvent, and the concentrate is diluted with solvent to the desired concentration.
1 μl of the active compound solution is injected into the abdomen of 5 engorged adult female cattle ticks (Boophilus microplus). The animals are transferred into dishes and kept in a climate-controlled room.
The activity is assessed after 7 days by laying of fertile eggs. Eggs whose fertility is not visible from the outside are stored in a climate-controlled cabinet until the larvae hatch after about 42 days. An efficacy of 100% means that none of the ticks has laid any fertile eggs; 0% means that all eggs are fertile.

[3] = logP determination by HPLC on a reversed-phase column (C18), EEC Directive 79/831 Annex V.A8; format: physicochemical
Experimental: (§5) ^a) Note regarding the determination of the logP values and mass detection: The determination of the given logP values was carried out in accordance with EEC Directive 79/831 Annex V.A8 by HPLC (High Performance Liquid Chromatography) on a reversed-phase column (C18). Agilent 1100 LC system; 50*4.6 Zorbax Eclipse Plus C18 1.8 micron; mobile phase A: acetonitrile (0.1% formic acid); mobile phase B: water (0.09% formic acid); linear gradient from 10% acetonitrile to 95% acetonitrile in 4.25 min, then 95% acetonitrile for a further 1.25 min; oven temperature 55° C.; flow rate: 2.0 ml/min. Mass detection is carried out via an Agilend MSD system.
as §5, with “^*)” for “^a)”

[4] = tested on: larvae of the mustard beetle (Phaedon cochleariae); assay: Phaedon cochleariae spray test (PHAECO); format: in vivo; conditions: Chinese cabbage leaf discs, after 7 days
Experimental: H. Phaedon cochleariae-spray Test (PHAECO)
Solvents: 78.0 parts by weight of acetone
as §2, §3
After 7 days, the efficacy in % is determined. 100% means that all of the beetle larvae have been killed; 0% means that none of the beetle larvae have been killed.

[5] = tested on: L1 larvae of the Australian sheep blowfly (Lucilia cuprina); assay: Lucilia cuprina test (LUCICU); format: in vivo; conditions: application rate 100 ppm; after 2 days
Experimental: E. Lucilia cuprina Test (LUCICU)
as §4
To produce a suitable preparation of active compound, 10 mg of active compound are mixed with 0.5 ml of dimethyl sulphoxide, and the concentrate is diluted with water to the desired concentration.
About 20 L1 larvae of the Australian sheep blowfly (Lucilia cuprina) are transferred into a test vessel containing minced horsemeat and the active compound preparation of the desired concentration.
After 2 days, the kill in % is determined 100% means that all of the larvae have been killed; 0% means that none of the larvae have been killed.

[6] = tested on: adult cat fleas (Ctenocephalides felis); assay: Ctenocephalides felis oral test (CTECFE); format: in vivo; conditions: application rate 100 ppm in citrated cattle blood; after 2 days
Experimental: D. Ctenocephalides felis-oral Test (CTECFE)
as §4
To produce a suitable preparation of active compound, 10 mg of active compound are mixed with 0.5 ml of dimethyl sulphoxide. Dilution with citrated cattle blood gives the desired concentration.
About 20 unfed adult cat fleas (Ctenocephalides felis) are placed into a chamber which is closed at the top and bottom with gauze. A metal cylinder whose bottom end is closed with a parafilm is placed onto the chamber. The cylinder contains the blood/active ingredient preparation, which can be imbibed by the fleas through the parafilm membrane.
After 2 days, the kill in % is determined 100% means that all of the fleas have been killed; 0% means that none of the fleas have been killed.

[7] = tested on: adult cat fleas (Ctenocephalides felis); assay: Ctenocephalides felis in vitro contact test with adult cat fleas (T1); conditions: after 48 h
Experimental: T1. Ctenocephalides felis—in vitro Contact Tests with Adult Cat Fleas
(§6) For the coating of the test tubes, initially 9 mg of active compound are dissolved in 1 ml of acetone p.a. and then diluted with acetone p.a. to the desired concentration. By turning and rocking on an orbital shaker (2 h of rocking rotation at 30 rpm), 250 μl of the solution are distributed homogeneously on the internal walls and the floor of a 25 ml test tube. At 900 ppm active compound solution and 44.7 cm^2 internal surface, an area dose of 5 μg/cm^2 is achieved for homogeneous distribution.
After evaporation of the solvent, the tubes are populated with 5-10 adult cat fleas (Ctenocephalides felis), sealed with a perforated plastic lid and incubated in a horizontal position at room temperature and ambient humidity. After 48 h, the efficacy is determined. To this end, the test tubes are stood upright and the fleas are knocked to the floor of the tube. Fleas which remain motionless on the floor or move in an uncoordinated manner are considered to be dead or moribund.
An efficacy of 100% means that all fleas were dead or moribund. 0% efficacy means that none of the fleas had been damaged.

[8] = tested on: greenhouse red spider mite (Tetranychus urticae); assay: Tetranychus urticae spray test, OP-resistant (TETRUR); format: in vivo; conditions: bean leaf discs, after 6 days
Experimental: J. Tetranychus urticae-spray Test, OP-Resistant (TETRUR)
as §1, §2, §3
Discs of bean leaves (Phaseolus vulgaris) which are infested by all stages of the greenhouse red spider mite (Tetranychus urticae) are sprayed with an active compound preparation of the desired concentration.
After 6 days, the efficacy in % is determined. 100% means that all of the spider mites have been killed; 0% means that none of the spider mites have been killed.

[9] = tested on: adult dog ticks (Rhipicephalus sanguineus); assay: Rhipicephalus sanguineus in vitro contact test with adult brown dog ticks (T2); conditions: after 48 h
Experimental: T2. Rhipicephalus sanguineus-in vitro Contact Tests with Adult Brown Dog Ticks
as §6
After evaporation of the solvent, the tubes are populated with 5-10 adult dog ticks (Rhipicephalus sanguineus), sealed with a perforated plastic lid and incubated in a horizontal position in the dark at room temperature and ambient humidity. After 48 h, the efficacy is determined. To this end, the ticks are knocked to the floor of the tube and incubated on a hotplate at 45-50° C. for at most 5 min Ticks which remain motionless on the floor or move in an uncoordinated manner such that they are not able to deliberately avoid the heat by climbing upwards are considered to be dead or moribund.
An efficacy of 100% means that all ticks were dead or moribund. 0% efficacy means that none of the ticks had been damaged.

[10] = HPLC on reversed-phase column (C18), acetonitrile/water with formic acid, EEC Directive 79/831 Annex V.A8

SMILES	efficacy (laying of fertile eggs) [2]	logP [3, 10]	efficacy in % ([4]; application rate 100 g/ha)	efficacy in % ([4]; application rate 500 g/ha)	efficacy in % ([1]; application rate 500 g/ha)	efficacy in % ([8]; application rate 500 g/ha)	further results
O=C(NC1CC1)c1cc(-c2cnn(-c3c(C(F)(F)F)c(C(F)(F)C(F)(F)F)nn3-c3ncccc3Cl)c2)ccc1Cl [Ic-14]	100%	4.28	100%	–	–	–	efficacy in % ([1]; application rate 100 g/ha): 100%; efficacy (kill in %) [5]: 100%
N#CC1(NC(=O)c2cc(-c3cnn(-c4c(C(F)(F)F)c(C(F)(F)C(F)(F)F)nn4-c4ncccc4Cl)c3)ccc2Cl)CC1 [Ic-15]	80%	4.15	100%	–	–	–	–
Cn1nc(C(F)(F)C(F)(F)F)c(C(F)(F)F)c1-n1cc(-c2ccc(Cl)c(C(=O)NCC(=O)NCC(F)(F)F)c2)cn1 [Ic-31]	–	3.65	100%	–	–	–	efficacy (kill in %) [6]: 100%; efficacy (kill in %) [5]: 90%
Cn1nc(C(F)(F)C(F)(F)F)c(C(F)(F)F)c1-n1cc(-c2cc(C(=O)NC3CC3)ncc2F)cn1 [Ic-72]	100%	–	–	100%	–	–	efficacy (kill in %) [5]: 80%
Cn1nc(C(F)(F)C(F)(F)F)c(C(F)(F)F)c1-n1cc(-c2cc(Cl)nc(C(=O)NC3CC3)c2)cn1 [Ic-88]	100%	–	–	100%	–	–	efficacy (kill in %) [5]: 100%
Cn1nc(C(F)(F)C(F)(F)F)c(C(F)(F)F)c1-n1cc(-c2cc(C(=O)NC3CC3)c(Cl)cc2F)cn1 [Ic-92]	100%	–	–	100%	–	–	efficacy (kill in %) [6]: 80%; efficacy (kill in %) [5]: 95%
CC(NC(=O)c1cc(-c2cnn(-c3c(C(F)(F)F)c(C(F)(F)C(F)(F)F)nn3C)c2)ccc1Cl)C(F)(F)F (centres unmarked) [Ic-110]	–	4.23	100%	–	–	–	efficacy in % ([1]; application rate 100 g/ha): 100%; efficacy (dead or moribund fleas) ([7]; application rate 5 μg/cm^2): 100%; efficacy in % ([8]; application rate 100 g/ha): 100%
CC(C)CNC(=O)c1cc(-c2cnn(-c3c(C(F)(F)F)c(C(F)(F)C(F)(F)F)nn3C)c2)ccc1Cl [Ic-142]	–	–	–	100%	100%	100%	efficacy (dead or moribund fleas) ([7]; application rate 1 μg/cm^2): 100%; efficacy (dead or moribund fleas) ([7]; application rate 5 μg/cm^2): 100%; efficacy (dead or moribund ticks) ([9]; application rate 1 μg/cm^2): 80%; efficacy (dead or moribund ticks) ([9]; application rate 5 μg/cm^2): 100%
Cn1nc(C(F)(F)C(F)(F)F)c(C(F)(F)F)c1-n1cc(-c2ccc(Cl)c(C(=O)NC3CCC3)c2)cn1 [Ic-143]	–	–	–	–	–	–	efficacy (dead or moribund fleas) ([7]; application rate 1 μg/cm^2): 100%; efficacy (dead or moribund fleas) ([7]; application rate 5 μg/cm^2): 100%; efficacy (dead or moribund ticks) ([9]; application rate 1 μg/cm^2): 100%; efficacy (dead or moribund ticks) ([9]; application rate 5 μg/cm^2): 100%
Cc1cc(NC(=O)c2cc(-c3cnn(-c4c(C(F)(F)F)c(C(F)(F)C(F)(F)F)nn4C)c3)ccc2Cl)no1 [Ic-148]	–	–	–	–	–	–	efficacy (dead or moribund fleas) ([7]; application rate 5 μg/cm^2): 100%; efficacy (dead or moribund ticks) ([9]; application rate 1 μg/cm^2): 80%
CONC(=O)c1cc(-c2cnn(-c3c(C(F)(F)F)c(C(F)(F)C(F)(F)F)nn3C)c2)ccc1Cl [Ic-155]	–	–	–	–	–	–	efficacy (dead or moribund fleas) ([7]; application rate 1 μg/cm^2): 100%; efficacy (dead or moribund fleas) ([7]; application rate 5 μg/cm^2): 100%; efficacy (dead or moribund ticks) ([9]; application rate 1 μg/cm^2): 100%; efficacy (dead or moribund ticks) ([9]; application rate 5 μg/cm^2): 100%
Cn1nc(C(F)(F)F)c(C(F)(F)F)c1-n1cc(-c2ccc(Cl)c(C(=O)NC3CC3F)c2)cn1 (centres unmarked) [Ic-177]	–	3.41	100%	–	–	–	efficacy in % ([1]; application rate 100 g/ha): 100%; efficacy in % ([8]; application rate 100 g/ha): 100%
CCOC1C(C)C1NC(=O)c1cc(-c2cnn(-c3c(C(F)(F)F)c(C(F)(F)C(F)(F)F)nn3C)c2)ccc1Cl (centres unmarked) [Ic-183]	–	4.34	–	100%	100%	100%	–
Cn1nc(C(F)(F)C(F)(F)F)c(C(F)(F)F)c1-n1cc(-c2ccc(Cl)c(C(=O)NC3CC3(Cl)Cl)c2)cn1 (centres unmarked) [Ic-184]	–	4.34	–	100%	100%	100%	–
C#CC(C)NC(=O)c1cc(-c2cnn(-c3c(C(F)(F)F)c(C(F)(F)C(F)(F)F)nn3C)c2)ccc1Cl (centres unmarked) [Ic-193]	–	3.97	–	100%	100%	100%	–
CC#CC(C)NC(=O)c1cc(-c2cnn(-c3c(C(F)(F)F)c(C(F)(F)C(F)(F)F)nn3C)c2)ccc1Cl (centres unmarked) [Ic-198]	–	4.27	–	100%	100%	100%	–
Cn1nc(C(F)(F)C(F)(F)F)c(C(F)(F)F)c1-n1cc(-c2ccc(Cl)c(C(=O)NC3(C)CC3)c2)cn1 [Ic-200]	–	4.12	–	100%	100%	100%	–
Cn1nc(C(F)(F)C(F)(F)F)c(C(F)(F)F)c1-n1cc(-c2cc(C(=O)NC3CC3)c(F)c(F)c2F)cn1 [Ic-201]	–	–	–	–	–	–	efficacy (dead or moribund ticks) ([9]; application rate 1 μg/cm^2): 100%; efficacy (dead or moribund ticks) ([9]; application rate 5 μg/cm^2): 100%
Cn1nc(C(F)(F)C(F)(F)F)c(C(F)(F)F)c1-n1cnc(-c2ccc(Cl)c(C(=O)NC3(C#N)CC3)c2)n1 [Ie-1]	100%	–	100%	–	–	–	efficacy (kill in %) [6]: 100%; logP ([3]; HPLC, reversed-phase C18, acetonitrile (0.1% formic acid)/water (0.09% formic acid) gradient): 3.62

Source: patent US9487489B2, “Halogen-substituted pyrazole derivatives as pest-control agents” (BAYER CROPSCIENCE AKTIENGESELLSCHAFT, priority 2013, dated 2016)
